Test results reported in US9682925B2, “Cyclopropaneamine compound” (TAKEDA PHARMACEUTICAL COMPANY LIMITED, priority 2011, dated 2017).
Counter-ions that a name gives are not always drawn. Like-named read-outs stand apart in the source and are kept apart here.

Key:
human LSD1(171-852) = biological target: T1, human LSD1(171-852) (Homo sapiens, UniProt O60341); experiment: Measurement of LSD1 inhibitory activity (time-resolved fluorescence, biotin-histone H3 mono methylated K4 peptide); format: biochemical
T1 construct: to give hLSD1(171-852) purified product; made in house; host or cells: Escherichia coli C43(DE3) pLysS

MAO-B = biological target: T2, MAO-B (Homo sapiens, UniProt P27338); experiment: Measurement of MAO-B inhibitory activity (MAO-Glo Assay); format: biochemical
T2 construct: purchased Sigma-Aldrich Co. LLC
T2 sequence (P27338 1-520): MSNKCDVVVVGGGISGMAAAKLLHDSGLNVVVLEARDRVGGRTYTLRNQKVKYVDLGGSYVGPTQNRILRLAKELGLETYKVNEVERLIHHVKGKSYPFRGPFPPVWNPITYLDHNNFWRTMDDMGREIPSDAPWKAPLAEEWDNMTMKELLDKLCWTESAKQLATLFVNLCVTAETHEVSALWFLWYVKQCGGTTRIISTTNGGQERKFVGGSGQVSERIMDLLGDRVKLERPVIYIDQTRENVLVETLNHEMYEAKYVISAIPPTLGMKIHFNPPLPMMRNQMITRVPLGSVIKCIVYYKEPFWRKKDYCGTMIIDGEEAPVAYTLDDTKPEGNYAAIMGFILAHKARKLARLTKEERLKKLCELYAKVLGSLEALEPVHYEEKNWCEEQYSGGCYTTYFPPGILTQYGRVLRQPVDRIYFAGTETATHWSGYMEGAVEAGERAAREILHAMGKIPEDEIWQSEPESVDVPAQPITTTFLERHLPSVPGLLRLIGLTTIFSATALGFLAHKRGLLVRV
Procedure, shortened: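 Percent inhibition was calculated from luciferin-based luminescence, corrected with a blank lacking enzyme and a control lacking compound. The reaction ran 60 min at room temperature after adding MAO substrate (16 µM as added). This followed a 10 min compound–enzyme preincubation in HEPES pH 7.5 buffer.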

MAO-A = biological target: T3, MAO-A (Homo sapiens, UniProt P21397); experiment: Measurement of MAO-A inhibitory activity (MAO-Glo Assay); format: biochemical
T3 construct: purchased Sigma-Aldrich Co. LLC
T3 sequence (P21397 1-527): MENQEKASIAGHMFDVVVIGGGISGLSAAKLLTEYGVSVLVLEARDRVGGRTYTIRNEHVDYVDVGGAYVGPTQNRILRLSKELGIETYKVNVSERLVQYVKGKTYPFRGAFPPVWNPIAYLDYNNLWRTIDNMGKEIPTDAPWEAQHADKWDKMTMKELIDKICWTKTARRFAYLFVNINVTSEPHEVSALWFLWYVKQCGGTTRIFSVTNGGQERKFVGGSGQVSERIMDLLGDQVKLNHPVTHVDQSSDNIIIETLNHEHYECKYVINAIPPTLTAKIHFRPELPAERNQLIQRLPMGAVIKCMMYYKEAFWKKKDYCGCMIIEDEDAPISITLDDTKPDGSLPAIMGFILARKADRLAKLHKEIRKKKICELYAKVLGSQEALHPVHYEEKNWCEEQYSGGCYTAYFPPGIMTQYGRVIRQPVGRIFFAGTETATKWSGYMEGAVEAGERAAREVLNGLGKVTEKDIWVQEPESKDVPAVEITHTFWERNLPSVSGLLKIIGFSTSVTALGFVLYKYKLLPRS
Procedure, shortened: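 MAO-A (400 ng) was pre-incubated with compound 10 min at room temperature in 100 mM HEPES pH 7.5, 5% glycerol, then MAO substrate (160 μM stock) added for 60 min. Luciferin detection reagent, 20 min, luminescence; % inhibition against no-compound control minus no-enzyme blank.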

[1] = test system: HEL92.1.7 acute myeloid leukemia cells; experiment: Tumor growth suppressive effect test using HEL92.1.7 acute myeloid leukemia cell; format: in vivo, SCID mice; settings: change rate in tumor volume, vehicle-treated group = 100%; 30 mg/kg orally once per day; dosing period 14 days
Description: Tumor Growth Suppressive Effect Test Using HEL92.1.7 Acute Myeloid Leukemia Cell
6-Week-old SCID mice were subcutaneously transplanted with 5×10^6 cells/100 μl of HEL92.1.7 acute myeloid leukemia cells, and the mice were grouped according to the body weight and tumor volume after 15 to 17 days. Vehicle (0.5% methylcellulose) or compound A, compound B or compound C was administered orally to mice (5 mice per group). The administration was once per day and performed continuously during the dosing period. Setting the change in tumor volume of the vehicle-treated group as 100%, the change rate in tumor volume of the compound-treated group (T/C %) was calculated. The tumor volume was determined by measuring the long diameter m and short diameter of the tumor with a vernier caliper, and calculating by the following calculation formula: (long diameter)×(short diameter)×(short diameter)/2.

Compound | IC50 (human LSD1(171-852)) [µM] | IC50 (MAO-B) [µM] | IC50 (MAO-A) [µM] | IC50 (human LSD1(171-852); read-out: LSD1 IC50 value) [µM] | T/C (%) [1] [%]
CN1C2CCC1CC(N[C@@H]1C[C@H]1c1ccc(NC(=O)c3cccc(C(F)(F)F)c3)cc1)C2 (relative stereo) [Example 149, N-(4-{trans-2-[(8-methyl-8-azabicyclo[3.2.1]oct-3-yl)amino]cyclopropyl}phenyl)-3-(trifluoromethyl)benzamide dihydrochloride] | < 0.1 | > 10 | > 10 |  | 
CN1CCC(N[C@@H]2C[C@H]2c2ccc(N(C)C(=O)c3cccc(C(F)(F)F)c3)cc2)CC1 (relative stereo) [Example 150, N-methyl-N-(4-{trans-2-[(1-methylpiperidin-4-yl)amino]cyclopropyl}phenyl)-3-(trifluoromethyl)benzamide dihydrochloride] |  | > 10 | > 10 | < 0.1 | 
O=C(Nc1ccc([C@@H]2C[C@H]2NC2CCS(=O)(=O)CC2)cc1)c1cccc(C(F)(F)F)c1 (relative stereo) [Example 151, N-(4-{trans-2-[(1,1-dioxidotetrahydro-2H-thiopyran-4-yl)amino]cyclopropyl}phenyl)-3-(trifluoromethyl)benzamide hydrochloride] |  | > 10 | > 10 | < 0.1 | 
O=C(Nc1ccc([C@@H]2C[C@H]2NC2CCC(F)(F)CC2)cc1)c1cccc(C(F)(F)F)c1 (relative stereo) [Example 154, N-(4-{trans-2-[(4,4-difluorocyclohexyl)amino]cyclopropyl}phenyl)-3-(trifluoromethyl)benzamide hydrochloride] |  | > 10 | > 10 | < 0.1 | 
CN1CCC(CN[C@@H]2C[C@H]2c2ccc(NC(=O)c3cccc(C(F)(F)F)c3)cc2)CC1 (relative stereo) [Example 155, N-{4-[trans-2-{[(1-methylpiperidin-4-yl)methyl]amino}cyclopropyl]phenyl}-3-(trifluoromethyl)benzamide dihydrochloride] |  | > 10 | > 10 | < 0.1 | 
Cc1cc(C(=O)Nc2ccc([C@@H]3C[C@H]3NCC3CC3)cc2)n(C)n1 (relative stereo) [Example 156, N-(4-{trans-2-[(cyclopropylmethyl)amino]cyclopropyl}phenyl)-1,3-dimethyl-1H-pyrazole-5-carboxamide dihydrochloride] |  | > 10 | > 10 | < 0.1 | 
Cc1cc(C(=O)Nc2ccc([C@@H]3C[C@H]3NCC3CC3)cc2)nn1C (relative stereo) [Example 157, N-(4-{trans-2-[(cyclopropylmethyl)amino]cyclopropyl}phenyl)-1,5-dimethyl-1H-pyrazole-3-carboxamide dihydrochloride] |  | > 10 | > 10 | 0.1 | 
Cn1cc(C(=O)Nc2ccc([C@@H]3C[C@H]3NCC3CC3)cc2)c(C(F)(F)F)n1 (relative stereo) [Example 158, N-(4-{trans-2-[(cyclopropylmethyl)amino]cyclopropyl}phenyl)-1-methyl-3-(trifluoromethyl)-1H-pyrazole-4-carboxamide hydrochloride] |  | > 10 | > 10 | < 0.1 | 
Cn1ncc(C(=O)Nc2ccc([C@@H]3C[C@H]3NCC3CC3)cc2)c1C(F)(F)F (relative stereo) [Example 159, N-(4-{trans-2-[(cyclopropylmethyl)amino]cyclopropyl}phenyl)-1-methyl-5-(trifluoromethyl)-1H-pyrazole-4-carboxamide hydrochloride] |  | > 10 | > 10 | < 0.1 | 
O=C(Nc1ccc([C@@H]2C[C@H]2NCc2cn3ccsc3n2)cc1)c1cccc(C(F)(F)F)c1 (relative stereo) [Example 160, N-(4-{trans-2-[(imidazo[2,1-b][1,3]thiazol-6-ylmethyl)amino]cyclopropyl}phenyl)-3-(trifluoromethyl)benzamide dihydrochloride] |  | > 10 | 5.1 | < 0.1 | 
O=C(Nc1ccc([C@@H]2C[C@H]2NCc2cc3cccnc3s2)cc1)c1cccc(C(F)(F)F)c1 (relative stereo) [Example 161, N-(4-{trans-2-[(thieno[2,3-b]pyridin-2-ylmethyl)amino]cyclopropyl}phenyl)-3-(trifluoromethyl)benzamide hydrochloride] |  | > 10 | 4.1 | < 0.1 | 
O=C(Nc1ccc([C@@H]2C[C@H]2NCc2ccc3cccnc3n2)cc1)c1cccc(C(F)(F)F)c1 (relative stereo) [Example 162, N-(4-{trans-2-[(1,8-naphthyridin-2-ylmethyl)amino]cyclopropyl}phenyl)-3-(trifluoromethyl)benzamide hydrochloride] |  | > 10 | 2.1 | < 0.1 | 
CC(C)(C)n1cc(C(=O)Nc2ccc([C@@H]3C[C@H]3NCC3CC3)cc2)cn1 (relative stereo) [Example 164, 1-tert-butyl-N-(4-{trans-2-[(cyclopropylmethyl)amino]cyclopropyl}phenyl)-1H-pyrazole-4-carboxamide hydrochloride] |  | > 10 | > 10 | 0.2 | 
O=C(Nc1ccc([C@@H]2C[C@H]2NCC2CC2)cc1)c1ccc(-c2ccccc2)cc1 (single isomer, unassigned) [Example 59, N-(4-{trans-2-[(cyclopropylmethyl)amino]cyclopropyl}phenyl)biphenyl-4-carboxamide hydrochloride] |  | > 10 | 7.1 |  | 12.54
CN1CCC(N[C@H]2C[C@@H]2c2ccc(NC(=O)c3cccc(C(F)(F)F)c3)cc2)CC1 (single isomer, unassigned) [Example 152, N-(4-{(1R,2S) or (1S,2R)-2-[(1-methylpiperidin-4-yl)amino]cyclopropyl}phenyl)-3-(trifluoromethyl)benzamide dihydrochloride] |  | > 10 | > 10 | < 0.1 | 
CN1CCC(N[C@@H]2C[C@H]2c2ccc(NC(=O)c3cccc(C(F)(F)F)c3)cc2)CC1 (single isomer, unassigned) [Example 153, N-(4-{(1S,2R) or (1R,2S)-2-[(1-methylpiperidin-4-yl)amino]cyclopropyl}phenyl)-3-(trifluoromethyl)benzamide dihydrochloride] |  | > 10 | > 10 | < 0.1 | 
O=C(N[C@@H](Cc1ccccc1)C(=O)Nc1ccc(C2CC2NCc2ccccc2)cc1)OCc1ccccc1 (stereo in doubt) [Example 57, N-{4-[trans-2-(benzylamino)cyclopropyl]phenyl}-Nα-[(benzyloxy)carbonyl]-L-phenylalaninamide hydrochloride] |  | > 10 | > 10 | 0.48 | 
O=C(N[C@H](Cc1ccccc1)C(=O)Nc1ccc(C2CC2NCc2ccccc2)cc1)OCc1ccccc1 (stereo in doubt) [Example 58, N-{4-[trans-2-(benzylamino)cyclopropyl]phenyl}-Nα-[(benzyloxy)carbonyl]-D-phenylalaninamide hydrochloride] |  | > 10 | > 10 | 0.41 | 
Cc1cc(C2CC2NCC2CC2)ccc1NC(=O)c1ccccc1 (stereo not drawn) [Example 81, N-(4-{trans-2-[(cyclopropylmethyl)amino]cyclopropyl}-2-methylphenyl)benzamide hydrochloride] |  | > 10 | > 10 | < 0.1 | 
